Assay results: patent publication US4421747A, “Inflammation-preventing pharmaceutical composition of oral administration” (A. Nattermann & Cie. GmbH, priority 1981, dated 1983)
Read-outs that look alike come from different tables or passages of the source.

Key:
bleeding stomach ulcer = test: Ulcer development (bleeding stomach ulcer provoked by oral application, mean ulcer factor); assay type: in vivo, Wistar-rats; conditions: for ED50: Rattus norvegicus, read-out: oral ED50
Protocol: The development of the ulcer was determined in accordance with
L. Mariani, "Eur. J. Toxicol.
R. Menguy & L. Desbaillets, "Proc. Soc. exp.
Ten male and ten female Wistar-rats (120 to 150 grams, in weight) which have not fed for 16 hours, were used for these tests. The bleeding stomach ulcer was provoked by oral application of the active substance. After 3.5 hours, the animals are killed and the stomach extracted, opened along the wide curvature and stretched onto a "Styropor" plate. The mean ulcer factor of the test and of the control group are determined. The variation is weighted in percentages as prevention of the ulcer formation.

rat paw oedema = test: rat-paw-oedema test (carragenin); assay type: in vivo; conditions: for ED50: 3 h, read-out: oral ED50; for Prevention of Oedema: Table VII, 12 animals; for Effectiveness applied to Rat Paw Oedema: Table VIII, Dosage 10.0 mg/kg KGW, 12 Animals, prevention of oedema in percentages
Protocol: On one hind paw of each rat (weight 200 to 250 grams) an oedema was caused to develop by the "subplantane" application of carragenin (0.5% in a 0.9% NaCl solution) in the amount of 0.1 ml solution per paw.
After the application of the test substance, its volume not to exceed 10 ml per kg of body weight, the volume of the paw is determined in an overflow ("Ueberlauf"). After three hours the final value is ascertained. The test is carried out for every dosage by using 10 test and 10 control animals of one sex and repeated with the identical number of animals of the other sex. For the purpose of evaluation, the prevention of the oedema is expressed in percentages relative to the control group.

[1] = Table V, oral, Dosage One cc per mg/kg of Body Weight (KGW), by proportion Indometacine:Phospholipon 100
[2] = reference substances, rat-paw-oedema test, oral

## CC(C)Cc1ccc(C(C)C(=O)O)cc1 (stereo not shown) [Ibuprofen, 2-(4-isobutylphenyl)-propinic acid]
Bleeding stomach ulcer; Table VI, oral, 5 mg/kg KGW, one value printed for without and with p^+ (Phospholipon 100, 1:1)
  Incidence of Ulcers: 20%
Bleeding stomach ulcer; Table VI, oral, 10 mg/kg KGW, without resp. with p^+ (Phospholipon 100, 1:1)
  Incidence of Ulcers: 20%
Bleeding stomach ulcer; Table VI, oral, 20 mg/kg KGW, without resp. with p^+ (Phospholipon 100, 1:1)
  Incidence of Ulcers: 40%
Bleeding stomach ulcer; Table VI, oral, 30 mg/kg KGW, without resp. with p^+ (Phospholipon 100, 1:1)
  Incidence of Ulcers: 50%
Bleeding stomach ulcer; Table VI, rat, oral, 5 mg/kg KGW, mixture molar ratio Ibuprofen:Phospholipon 100 = 1:1, 3.5 h, n=10
  Ulcer Index: 0.20 ± 0.13
Bleeding stomach ulcer; Table VI, rat, oral, 10 mg/kg KGW, mixture molar ratio Ibuprofen:Phospholipon 100 = 1:1, 3.5 h, n=10
  Ulcer Index: 0.30 ± 0.15
Bleeding stomach ulcer; Table VI, rat, oral, 20 mg/kg KGW, mixture molar ratio Ibuprofen:Phospholipon 100 = 1:1, 3.5 h, n=10
  Ulcer Index: 0.50 ± 0.22
Bleeding stomach ulcer; Table VI, rat, oral, 30 mg/kg KGW, mixture molar ratio Ibuprofen:Phospholipon 100 = 1:1, 3.5 h, n=10
  Ulcer Index: 0.71 ± 0.30

## CN1C2CCC1CC(OC(=O)C(CO)c1ccccc1)C2 (stereo not shown) [atropinesulphate]
Bleeding stomach ulcer; po
  ED50: 17.1 mg/kg

## CN(C)CCCN1c2ccccc2Sc2ccc(Cl)cc21 [chloropromazine]
Bleeding stomach ulcer; reference substances, ulcer test, oral
  ED50: 105 mg/kg

## COc1ccc2c(c1)c(CC(=O)O)c(C)n2C(=O)c1ccc(Cl)cc1 [Indometacine]
Rat paw oedema; Rattus norvegicus, po
  ED50: 7.24 mg/kg
Rat paw oedema; Indometacine 3.16 mg/kg p.o., mixture with Phospholipon 100 7.1 mg/kg p.o.
  Prevention of Oedema: -47.3%
Rat paw oedema; Indometacine 10 mg/kg p.o., mixture with Phospholipon 100 22.4 mg/kg p.o.
  Prevention of Oedema: -37.8%
Rat paw oedema; 3 hours elapsed after application
  Effectiveness applied to Rat Paw Oedema: 32
Rat paw oedema; 4 hours elapsed after application
  Effectiveness applied to Rat Paw Oedema: 40
Rat paw oedema; 5 hours elapsed after application
  Effectiveness applied to Rat Paw Oedema: 28
Rat paw oedema; 6 hours elapsed after application
  Effectiveness applied to Rat Paw Oedema: 27
Bleeding stomach ulcer; Table III, oral, 5 mg/kg KGW, mixture molar ratio Indometacine:Phospholipon 100 = 2:1, 3.5 h, n=10
  Ulcer Index: 1.20 ± 0.30
Bleeding stomach ulcer; Table III, oral, 5 mg/kg KGW, without resp. with p^+ (Phospholipon 100, 2:1)
  Incidence of Ulcers: 70%
Bleeding stomach ulcer; Table III, oral, 10 mg/kg KGW, mixture molar ratio Indometacine:Phospholipon 100 = 2:1, 3.5 h, n=10
  Ulcer Index: 1.90 ± 0.90
Bleeding stomach ulcer; Table III, oral, 10 mg/kg KGW, without resp. with p^+ (Phospholipon 100, 2:1)
  Incidence of Ulcers: 90%
Bleeding stomach ulcer; Table III, oral, 20 mg/kg KGW, mixture molar ratio Indometacine:Phospholipon 100 = 2:1, 3.5 h, n=10
  Ulcer Index: 1.50 ± 0.40
Bleeding stomach ulcer; Table III, oral, 20 mg/kg KGW, without resp. with p^+ (Phospholipon 100, 2:1)
  Incidence of Ulcers: 100%
Bleeding stomach ulcer; Table IV, oral, 5 mg/kg KGW, without resp. with p^+ (Phospholipon 45, 1:2)
  Incidence of Ulcers: 80%
Bleeding stomach ulcer; Table IV, oral, 10 mg/kg KGW, one value printed for without and with p^+ (Phospholipon 45, 1:2)
  Incidence of Ulcers: 90%
Bleeding stomach ulcer; Table IV, oral, 20 mg/kg KGW, one value printed for without and with p^+ (Phospholipon 45, 1:2)
  Incidence of Ulcers: 100%
Bleeding stomach ulcer; Table IV, oral, 30 mg/kg KGW, without resp. with p^+ (Phospholipon 45, 1:2)
  Incidence of Ulcers: 80%
Bleeding stomach ulcer; Table IV, rat, oral, 5 mg/kg KGW, mixture molar ratio Indometacine:Phospholipon 45 = 1:2, 3.5 h, n=10
  Ulcer Index: 2.10 ± 0.36
Bleeding stomach ulcer; Table IV, rat, oral, 10 mg/kg KGW, mixture molar ratio Indometacine:Phospholipon 45 = 1:2, 3.5 h, n=10
  Ulcer Index: 2.20 ± 0.42
Bleeding stomach ulcer; Table IV, rat, oral, 20 mg/kg KGW, mixture molar ratio Indometacine:Phospholipon 45 = 1:2, 3.5 h, n=10
  Ulcer Index: 2.30 ± 0.47
Bleeding stomach ulcer; Table IV, rat, oral, 30 mg/kg KGW, mixture molar ratio Indometacine:Phospholipon 45 = 1:2, 3.5 h, n=10
  Ulcer Index: 2.70 ± 0.30
Bleeding stomach ulcer; [1]
  Ulcer Index: 2.60 ± 0.22
  Variation of Mean Ulcer Factor: Indometacine With p^+ Versus Without p^+: 0%

## CCCCC1C(=O)N(c2ccccc2)N(c2ccccc2)C1=O [Phenylbutazone, 4-butyl-1,2-diphenylpyrazolidine-3,5-dion]
Rat paw oedema; [2]
  ED50: 100 mg/kg
Bleeding stomach ulcer; Table II, oral, 25 mg/kg KGW, mixture molar ratio Phenylbutazone:Phospholipon 100 = 2:1, 3.5 h, n=10
  Ulcer Index: 0.70 ± 0.05
Bleeding stomach ulcer; Table II, oral, 25 mg/kg KGW, without resp. with p^+ (Phospholipon 100, 2:1)
  Incidence of Ulcers: 70%
Bleeding stomach ulcer; Table II, oral, 50 mg/kg KGW, mixture molar ratio Phenylbutazone:Phospholipon 100 = 2:1, 3.5 h, n=10
  Ulcer Index: 1.60 ± 0.42
Bleeding stomach ulcer; Table II, oral, 50 mg/kg KGW, without resp. with p^+ (Phospholipon 100, 2:1)
  Incidence of Ulcers: 60%
Bleeding stomach ulcer; Table II, oral, 100 mg/kg KGW, mixture molar ratio Phenylbutazone:Phospholipon 100 = 2:1, 3.5 h, n=10
  Ulcer Index: 1.80 ± 0.84
Bleeding stomach ulcer; Table II, oral, 100 mg/kg KGW, without resp. with p^+ (Phospholipon 100, 2:1)
  Incidence of Ulcers: 100%
Bleeding stomach ulcer; Table II, oral, 200 mg/kg KGW, mixture molar ratio Phenylbutazone:Phospholipon 100 = 2:1, 3.5 h, n=10
  Ulcer Index: 1.90 ± 0.66
Bleeding stomach ulcer; Table II, oral, 200 mg/kg KGW, one value printed for without and with p^+ (Phospholipon 100, 2:1)
  Incidence of Ulcers: 80%

## CC(=O)OCC(=O)[C@@]1(O)CC[C@H]2[C@@H]3CCC4=CC(=O)CC[C@]4(C)[C@H]3[C@@H](O)C[C@@]21C [Hydrocortisoneacetate]
Rat paw oedema; [2]
  ED50: 19 mg/kg

## CC(=O)Oc1ccccc1C(=O)O [Acetyl-Salicylic Acid, acetyl-salicylic acid]
Bleeding stomach ulcer; Table I, oral, 200 mg/kg KGW, mixture molar ratio Acetyl-Salicylic Acid:Phospholipon 100 = 2:1, 3.5 h, n=10
  Ulcer Index: 1.20 ± 0.20
Bleeding stomach ulcer; Table I, oral, 200 mg/kg KGW, without resp. with p^+ (Phospholipon 100, 2:1)
  Incidence of Ulcers: 70%
Bleeding stomach ulcer; Table I, oral, 400 mg/kg KGW, mixture molar ratio Acetyl-Salicylic Acid:Phospholipon 100 = 2:1, 3.5 h, n=10
  Ulcer Index: 1.10 ± 0.50
Bleeding stomach ulcer; Table I, oral, 400 mg/kg KGW, without resp. with p^+ (Phospholipon 100, 2:1)
  Incidence of Ulcers: 50%
Bleeding stomach ulcer; Table I, oral, 800 mg/kg KGW, mixture molar ratio Acetyl-Salicylic Acid:Phospholipon 100 = 2:1, 3.5 h, n=10
  Ulcer Index: 1.20 ± 0.20
Bleeding stomach ulcer; Table I, oral, 800 mg/kg KGW, without resp. with p^+ (Phospholipon 100, 2:1)
  Incidence of Ulcers: 80%
